In publication PMC4057896 (Journal of molecular biology, 2014):
“Also recorded” adds a separate entry of the source.

Experiments:
hexon trimer [1] = assay: Native MS of hexon-pVIn reconstituted from purified hexon and synthetic pVIn; type: binding, human adenovirus (Ad5 hexon)
hexon trimer [2] = assay: Native MS of endogenous hexon-pVIn complexes from heat-disrupted virions; type: binding, human adenovirus (Ad5F35)
hexon trimers = details: in vitro; ref [15]; cited from earlier work
[3] = 1:2 hexon:pVIn, pH range 4–9, native MS, triplicate
[4] = 150 mM ammonium acetate pH 5, released fraction

Substance: MEDINFASLAPRHGSRPFMGNWQDIGTSNMSGG [pVIn]
- strength of hexon-pVIn interaction at cytosolic pH (hexon trimer [1]; [3]): relatively weak
- strength of hexon-pVIn interaction at endosomal pH (hexon trimer [1]; [3]): strongest
- dissociation of hexon-pVIn towards pH 8 (hexon trimer [1]; 1:2 hexon:pVIn, pVIn 1 µM, hexon trimer 0.5 µM, native MS, 150 mM ammonium acetate, triplicate): near-complete dissociation
- residual endogenous pVIn bound to purified hexons (hexon trimer [1]; hexons isolated from virus-infected cells, no synthetic pVIn added, native MS): approximately 3 % of maximum occupancy
- binding of pVIn to hexon trimer at pH 5 (hexon trimer [2]; [4]): nearly complete binding; also recorded: fully retained on hexon trimers
- pVIn molecules/hexon trimer at pH 5 (hexon trimer [2]; [4]): 3 pVIn molecules/hexon trimer
- binding of pVIn to hexon trimer at pH 9 (hexon trimer [2]; 150 mM ammonium acetate pH 9, released fraction): only free hexon trimers were recovered and detected

Substance: pVI: 250 aa precursor of human adenovirus minor capsid protein VI
- affinity for hexon trimers (hexon trimers): high affinity; also recorded: nanomolar affinity
